Source: patent US12624018B1, “Inhibitors of RIPK2 and medical uses thereof” (Odyssey Therapeutics, Inc., priority 2022, dated 2026)

Target: T1, RIPK2 enzyme (Homo sapiens, UniProt O43353)
T1 construct: purchased Carna 09-128
Assay: RIPK2 inhibition (ADP-Glo Kinase Assay)
Assay type: biochemical
Details: RIPK2 5 nM, ATP 150 μM, MBP substrate, read-out: RIPK2 IC50
Procedure, shortened: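 Human RIPK2 (5 nM) preincubated with compound 30 min at room temperature in 50 mM HEPES pH 7.5, 10 mM MgCl2, 2 mM DTT, 1 mM EGTA, 0.01% Brij-35, 0.05% BSA; native swine MBP as substrate. ADP formed quantified by ADP-Glo luminescence; percent inhibition relative to DMSO and no-enzyme controls.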

T1 sequence (O43353 1-299 limits assumed): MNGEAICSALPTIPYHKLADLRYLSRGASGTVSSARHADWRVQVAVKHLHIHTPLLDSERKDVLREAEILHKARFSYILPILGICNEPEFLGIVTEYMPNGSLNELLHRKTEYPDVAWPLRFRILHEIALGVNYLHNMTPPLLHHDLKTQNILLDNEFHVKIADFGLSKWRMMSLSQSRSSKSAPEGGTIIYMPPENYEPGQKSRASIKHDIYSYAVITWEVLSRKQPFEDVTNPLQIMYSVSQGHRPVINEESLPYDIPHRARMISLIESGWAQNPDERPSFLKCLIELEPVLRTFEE

Structure (SMILES)	IC50
COc1ccc2nccc(Oc3ccc(CC(=O)Nc4cnn(C(C)(C)C)c4)c(F)c3)c2c1 [Compound 1, N-(1-(tert-butyl)-1H-pyrazol-4-yl)-2-(2-fluoro-4-((6-methoxy-quinolin-4-yl)oxy)phenyl) acetamide]	5.6 nM
CC(C)(C)c1cc(NC(=O)Cc2ccc(Oc3ccnc4ccc(S(C)(=N)=O)cc34)cc2F)[nH]n1 (centres unmarked) [Compound 65, N-(5-(tert-butyl)-1H-pyrazol-3-yl)-2-(2-fluoro-4-((6-(S-methylsulfonimidoyl)quinolin-4-yl)oxy)phenyl) acetamide]	< 2.5 nM
Cc1cc(CC(=O)Nc2cnn(C(C)(C)C)c2)ccc1Oc1ccnc2ccc(OC3CCN(CC(F)(F)F)CC3)cc12 [Compound 110, N-(1-(tert-butyl)-1H-pyrazol-4-yl)-2-(3-methyl-4-((6-((1-(2,2,2-trifluoroethyl)piperidin-4-yl)oxy)quinolin-4-yl)oxy)phenyl) acetamide]	< 2.5 nM
COC(C)(C)c1cc(NC(=O)Cc2ccc(Oc3ccnc4ccc(S(C)(=O)=O)cc34)c(C)c2)[nH]n1 [Compound 330, N-(5-(2-methoxypropan-2-yl)-1H-pyrazol-3-yl)-2-(3-methyl-4-((6-(methylsulfonyl)quinolin-4-yl)oxy)phenyl)acetamide]	< 2.5 nM
CN1CCC(Oc2ccc3nccc(Oc4ccc(CC(=O)Nc5cnn(C(C)(C)C)c5)cc4Cl)c3c2)CC1 [Compound 172, N-(1-(tert-butyl)-1H-pyrazol-4-yl)-2-(3-chloro-4-((6-((1-methyl-piperidin-4-yl)oxy)quinolin-4-yl)oxy)phenyl) acetamide]	< 2.5 nM
Cc1cc(CC(=O)Nc2noc(C(C)(C)C)n2)ccc1Oc1ncnc2ccc(OC3CCNCC3)cc12 [Compound 183, N-(5-(tert-butyl)-1,2,4-oxadiazol-3-yl)-2-(3-methyl-4-((6-(piperidin-4-yloxy)quinazolin-4-yl)oxy)phenyl) acetamide]	< 2.5 nM
Cc1c(Oc2ccnc3ccc(OC4CCN(C)CC4)cc23)ccc(CC(=O)Nc2cnn(C(C)(C)C)c2)c1F [Compound 103, N-(1-(tert-butyl)-1H-pyrazol-4-yl)-2-(2-fluoro-3-methyl-4-((6-((1-methylpiperidin-4-yl)oxy)quinolin-4-yl)oxy)phenyl)acetamide]	< 2.5 nM
CCP(=O)(CC)c1ccc2nccc(Oc3ccc(CC(=O)Nc4cnn(C(C)(C)C)c4)cc3C)c2c1 [Compound 180, N-(1-(tert-butyl)-1H-pyrazol-4-yl)-2-(4-((6-(diethylphosphoryl)quinolin-4-yl)oxy)-3-methylphenyl) acetamide]	< 2.5 nM
Cc1c(Oc2ccnc3ccc(C(=O)NCC4COC4)cc23)ccc(CC(=O)Nc2cnn(C(C)(C)C)c2)c1F [Compound 399, 4-(4-(2-((1-(tert-butyl)-1H-pyrazol-4-yl)amino)-2-oxoethyl)-3-fluoro-2-methyl-phenoxy)-N-(oxetan-3-ylmethyl) quinoline-6-carboxamide]	< 2.5 nM
Cc1cc(CC(=O)Nc2cnn(C(C)(C)C)c2)ccc1Oc1ccnc2ccc(OC[C@@H]3CCNC3)cc12 [Compound 192, (R)-N-(1-(tert-butyl)-1H-pyrazol-4-yl)-2-(3-methyl-4-((6-(pyrrolidin-3-ylmethoxy)quinolin-4-yl)oxy)phenyl) acetamide]	< 2.5 nM
CC(C)(C)c1ccnc(NC(=O)Cc2ccc(Oc3ncnc4ccc(F)cc34)cc2F)c1 [Compound 21, N-(4-(tert-butyl)pyridin-2-yl)-2-(2-fluoro-4-((6-fluoroquinazolin-4-yl)oxy)phenyl) acetamide]	36.6 nM
COCCN1CCC(Oc2ccc3ncnc(Oc4ccc(CC(=O)Nc5cnn(C(C)(C)C)c5)cc4C)c3c2)CC1 [Compound 177, N-(1-(tert-butyl)-1H-pyrazol-4-yl)-2-(4-((6-((1-(2-methoxyethyl)piperidin-4-yl)oxy)quinazolin-4-yl)oxy)-3-methylphenyl) acetamide]	< 2.5 nM
Cc1c(Oc2ccnc3ccc(S(=O)(=O)C4CCOCC4)cc23)ccc(CC(=O)Nc2cnn(C(C)(C)C)c2)c1F [Compound 249, N-(1-(tert-butyl)-1H-pyrazol-4-yl)-2-(2-fluoro-3-methyl-4-((6-((tetrahydro-2H-pyran-4-yl)sulfonyl)quinolin-4-yl)oxy)phenyl)acetamide]	< 2.5 nM
COc1ccc2ncnc(Oc3cnc(CC(=O)Nc4cc(C(C)(C)C)[nH]n4)c(F)c3)c2c1 [Compound 12, N-(5-(tert-butyl)-1H-pyrazol-3-yl)-2-(3-fluoro-5-((6-methoxyquinazolin-4-yl)oxy)pyridin-2-yl)acetamide]	11.6 nM
Cc1cc(CC(=O)Nc2cnn(C(C)(C)C)c2)ccc1Oc1ccnc2ccc(S(=O)(=O)C3CCOC3)cc12 (single isomer, unassigned) [Compound 200, N-(1-(tert-butyl)-1H-pyrazol-4-yl)-2-(3-methyl-4-((6-((tetrahydrofuran-3-yl)sulfonyl)quinolin-4-yl)oxy)phenyl)acetamide]	< 2.5 nM
Cn1nc(NC(=O)Cc2ncc(Oc3ccnc4ccc(S(C)(=O)=O)cc34)cc2F)cc1C(C)(C)C [Compound 41, N-(5-(tert-butyl)-1-methyl-1H-pyrazol-3-yl)-2-(3-fluoro-5-((6-(methylsulfonyl)quinolin-4-yl)oxy)pyridin-2-yl)acetamide]	7.6 nM
COc1ccc2ncnc(Oc3cnc(CC(=O)Nc4cnn(C(C)(C)C)c4)c(Cl)c3)c2c1 [Compound 10, N-(1-(tert-butyl)-1H-pyrazol-4-yl)-2-(3-chloro-5-((6-methoxyquinazolin-4-yl)oxy)pyridin-2-yl)acetamide]	43.5 nM
Cc1cc(CC(=O)Nc2cnn(C(C)(C)C)c2)ccc1Oc1ccnc2ccc(N3CC(CN)OC3=O)cc12 (single isomer, unassigned) [Compound 320, 2-(4-((6-(5-(aminomethyl)-2-oxooxazolidin-3-yl)quinolin-4-yl)oxy)-3-methylphenyl)-N-(1-(tert-butyl)-1H-pyrazol-4-yl)acetamide]	< 2.5 nM
Cc1c(Oc2ccnc3ccc(C(=O)N4CCC(O)C4)cc23)ccc(CC(=O)Nc2cnn(C(C)(C)C)c2)c1F (single isomer, unassigned) [Compound 352, N-(1-(tert-butyl)-1H-pyrazol-4-yl)-2-(2-fluoro-4-((6-(3-hydroxy-pyrrolidine-1-carbonyl)quinolin-4-yl)oxy)-3-methyl-phenyl) acetamide]	< 2.5 nM

Next, values leading:

IC50	Structure (SMILES)
< 2.5 nM	Cc1c(Oc2ccnc3ccc(S(=O)(=O)N4CC(C#N)C4)cc23)ccc(CC(=O)Nc2cnn(C(C)(C)C)c2)c1F [Compound 273, N-(1-(tert-butyl)-1H-pyrazol-4-yl)-2-(4-((6-((3-cyanoazetidin-1-yl)sulfonyl)quinolin-4-yl)oxy)-2-fluoro-3-methylphenyl)acetamide]
< 2.5 nM	Cc1cc(CC(=O)Nc2cnn(C(C)(C)C)c2)c(F)cc1Oc1ccnc2ccc(C(=O)NC3CC(F)(F)C3)cc12 [Compound 398, 4-(4-(2-((1-(tert-butyl)-1H-pyrazol-4-yl)amino)-2-oxoethyl)-5-fluoro-2-methyl-phenoxy)-N-(3,3-difluoro-cyclobutyl) quinoline-6-carboxamide]
< 2.5 nM	Cn1nc(NC(=O)Cc2ccc(Oc3ccnc4ccc(S(C)(=O)=O)cc34)cc2F)cc1C(C)(C)C [Compound 40, N-(5-(tert-butyl)-1-methyl-1H-pyrazol-3-yl)-2-(2-fluoro-4-((6-(methylsulfonyl)quinolin-4-yl)oxy)phenyl)acetamide]
< 2.5 nM	Cc1cc(CC(=O)Nc2cc(C(C)(C)C)n(C)n2)ccc1Oc1ccnc2ccc(S(C)(=O)=O)cc12 [Compound 230, N-(5-(tert-butyl)-1-methyl-1H-pyrazol-3-yl)-2-(3-methyl-4-((6-(methylsulfonyl)quinolin-4-yl)oxy)phenyl)acetamide]
< 2.5 nM	Cc1cc(CC(=O)Nc2cnn(C(C)(C)C)c2)c(F)cc1Oc1ccnc2ccc(C(=O)N3CC(N)C3)cc12 [Compound 374, 2-(4-((6-(3-amino-azetidine-1-carbonyl)quinolin-4-yl)oxy)-2-fluoro-5-methyl-phenyl)-N-(1-(tert-butyl)-1H-pyrazol-4-yl)acetamide]
< 2.5 nM	CCN1CCC(Oc2ccc3nccc(Oc4ccc(CC(=O)Nc5cnn(C(C)(C)C)c5)cc4C)c3c2)CC1 [Compound 94, N-(1-(tert-butyl)-1H-pyrazol-4-yl)-2-(4-((6-((1-ethylpiperidin-4-yl)oxy)quinolin-4-yl)oxy)-3-methylphenyl) acetamide]
< 2.5 nM	CC(C)(C)n1cc(NC(=O)Cc2ccc(Oc3ccnc4ccc(CS(C)(=O)=O)cc34)cc2F)cn1 [Compound 75, N-(1-(tert-butyl)-1H-pyrazol-4-yl)-2-(2-fluoro-4-((6-((methylsulfonyl)methyl)quinolin-4-yl)oxy)phenyl)acetamide]
< 2.5 nM	CC(C)(C)n1cc(NC(=O)Cc2ccc(Oc3ccnc4ccc(S(C)(=N)=O)cc34)c(Cl)c2)cn1 (single isomer, unassigned) [Compound 196, N-(1-(tert-butyl)-1H-pyrazol-4-yl)-2-(3-chloro-4-((6-(S-methylsulfonimidoyl)quinolin-4-yl)oxy)phenyl)acetamide]
< 2.5 nM	Cc1cc(CC(=O)Nc2cnn(C(C)(C)C)c2)c(F)cc1Oc1ccnc2ccc(C(C)(C)C#N)cc12 [Compound 411, N-(1-(tert-butyl)-1H-pyrazol-4-yl)-2-(4-((6-(2-cyanopropan-2-yl)quinolin-4-yl)oxy)-2-fluoro-5-methylphenyl)acetamide]
< 2.5 nM	Cc1cc(CC(=O)Nc2cnn(C(C)(C)C)c2)c(F)cc1Oc1ccnc2ccc(CN3C[C@H]4C[C@@H]3CO4)cc12 [Compound 423, 2-(4-((6-(((1R,4R)-2-oxa-5-azabicyclo[2.2.1]heptan-5-yl)methyl)quinolin-4-yl)oxy)-2-fluoro-5-methylphenyl)-N-(1-(tert-butyl)-1H-pyrazol-4-yl)acetamide]
